Calls of active or inactive are those of the source.
Experiments:
[1] = target: Delta-type opioid receptor (Homo sapiens, UniProt P41143); experiment: SAR Analysis of Antagonists of the DOR Receptor using an Image-Based Assay - Set 3. [Related pubchem assays (depositor defined):AID1777, AID1785]; type: functional;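 further: U2OS cells expressing DOR1 and beta-arrestin GFP stimulated with 100 nM SNC80; imaging of GFP-tagged beta-arrestin moving into spots after receptor activation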
Mu-type opioid receptor = Mu-type opioid receptor (Homo sapiens, UniProt P35372); experiment: SAR Analysis of Antagonists of the MOR Receptor using an Image-Based Assay - Set 3. [Related pubchem assays (depositor defined):AID1777, AID1785, AID1786, AID1966, AID2133, AID2136, AID2284, AID2285, AID2420]; type: functional
Beta-lactamase [2] = target: T1, Beta-lactamase (Pseudomonas aeruginosa, UniProt Q79MP6); experiment: inhibition of IMP-1 beta-lactamase activity – biochemical, epi-absorbance, selectivity assay for VIM-2 inhibitor project, dose response (AID 1920)
T1 sequence (Q79MP6 whole entry): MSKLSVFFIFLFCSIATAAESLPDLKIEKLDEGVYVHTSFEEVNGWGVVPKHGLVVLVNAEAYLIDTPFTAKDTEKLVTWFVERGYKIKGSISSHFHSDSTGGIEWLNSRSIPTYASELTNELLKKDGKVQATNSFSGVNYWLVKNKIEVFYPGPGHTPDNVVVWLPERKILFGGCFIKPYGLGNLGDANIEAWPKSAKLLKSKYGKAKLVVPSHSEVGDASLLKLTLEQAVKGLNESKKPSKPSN

[3] = target: DNA dC->dU-editing enzyme APOBEC-3G (Homo sapiens, UniProt Q9HC16); experiment: Dose Response confirmation of small molecule APOBEC3G DNA Deaminase Inhibitors via a fluorescence-based single-stranded DNA deaminase assay. [Related pubchem assays (depositor defined):AID493012, AID493028]; type: functional
Sequence of DNA dC->dU-editing enzyme APOBEC-3G (Q9HC16 whole entry): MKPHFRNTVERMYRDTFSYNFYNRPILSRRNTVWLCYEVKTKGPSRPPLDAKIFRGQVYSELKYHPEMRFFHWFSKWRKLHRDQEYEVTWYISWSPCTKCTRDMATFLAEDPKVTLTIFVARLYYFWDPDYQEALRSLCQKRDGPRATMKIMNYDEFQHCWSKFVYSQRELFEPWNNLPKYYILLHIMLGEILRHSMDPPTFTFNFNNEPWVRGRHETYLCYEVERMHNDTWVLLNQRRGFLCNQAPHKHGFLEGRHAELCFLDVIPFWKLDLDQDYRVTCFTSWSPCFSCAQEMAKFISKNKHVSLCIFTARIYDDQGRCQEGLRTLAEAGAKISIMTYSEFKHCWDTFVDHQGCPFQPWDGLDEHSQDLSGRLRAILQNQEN

[4] = target: DNA dC->dU-editing enzyme APOBEC-3A (Homo sapiens, UniProt P31941); experiment: A3A deaminase inhibition for selectivity – biochemical, dose response (AID 504722); type: functional
Sequence of DNA dC->dU-editing enzyme APOBEC-3A (P31941 whole entry): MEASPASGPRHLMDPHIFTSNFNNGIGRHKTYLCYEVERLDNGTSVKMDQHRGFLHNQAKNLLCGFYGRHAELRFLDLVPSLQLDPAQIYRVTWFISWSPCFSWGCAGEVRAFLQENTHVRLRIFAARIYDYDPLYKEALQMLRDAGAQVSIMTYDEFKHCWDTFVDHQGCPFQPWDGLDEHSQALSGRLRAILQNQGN

Beta-lactamase [5] = target: T1, Beta-lactamase; experiment: […] counterscreen for selective VIM-2 inhibitors: dose response biochemical high throughput screening assay to identify inhibitors of IMP-1 metallo-beta-lactamase.
Beta-lactamase [6] = target: Beta-lactamase (Salmonella choleraesuis (strain SC-B67), UniProt Q5J463); experiment: Epi-absorbance-based counterscreen for selective VIM-2 inhibitors: dose response biochemical high throughput screening assay to identify inhibitors of TEM-1 serine-beta-lactamase.
[7] = target: Peroxisome proliferator-activated receptor gamma/Nuclear receptor coactivator 3 (Homo sapiens, UniProt P37231); experiment: TR-FRET dose response biochemical High Throughput Screening assay for agonists of the steroid receptor coactivator 3 (SRC-3) recruitment by the peroxisome proliferator-activated receptor gamma (PPAR gamma): non-selective agonists. [Related pubchem assays: 1301 (Confirmation screen.), 1048 (Primary screen.)]; type: functional
Sequence of Peroxisome proliferator-activated receptor gamma/Nuclear receptor coactivator 3 (P37231 whole entry): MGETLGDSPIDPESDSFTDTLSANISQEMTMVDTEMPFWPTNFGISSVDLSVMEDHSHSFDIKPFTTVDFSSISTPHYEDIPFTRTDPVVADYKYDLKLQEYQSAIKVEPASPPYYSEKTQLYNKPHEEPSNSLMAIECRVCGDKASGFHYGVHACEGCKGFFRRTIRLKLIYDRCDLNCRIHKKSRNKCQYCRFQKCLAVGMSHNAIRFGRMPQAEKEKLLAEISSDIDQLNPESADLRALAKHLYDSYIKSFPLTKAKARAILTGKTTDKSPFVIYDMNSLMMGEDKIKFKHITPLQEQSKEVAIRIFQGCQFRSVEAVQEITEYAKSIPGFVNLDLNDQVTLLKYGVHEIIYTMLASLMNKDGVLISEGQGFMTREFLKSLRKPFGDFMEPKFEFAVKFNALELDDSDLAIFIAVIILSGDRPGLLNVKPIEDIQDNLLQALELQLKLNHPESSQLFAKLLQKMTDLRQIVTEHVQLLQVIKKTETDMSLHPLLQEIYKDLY
Sequence of Peroxisome proliferator-activated receptor gamma/Nuclear receptor coactivator 3 (Q9Y6Q9 whole entry, further chain): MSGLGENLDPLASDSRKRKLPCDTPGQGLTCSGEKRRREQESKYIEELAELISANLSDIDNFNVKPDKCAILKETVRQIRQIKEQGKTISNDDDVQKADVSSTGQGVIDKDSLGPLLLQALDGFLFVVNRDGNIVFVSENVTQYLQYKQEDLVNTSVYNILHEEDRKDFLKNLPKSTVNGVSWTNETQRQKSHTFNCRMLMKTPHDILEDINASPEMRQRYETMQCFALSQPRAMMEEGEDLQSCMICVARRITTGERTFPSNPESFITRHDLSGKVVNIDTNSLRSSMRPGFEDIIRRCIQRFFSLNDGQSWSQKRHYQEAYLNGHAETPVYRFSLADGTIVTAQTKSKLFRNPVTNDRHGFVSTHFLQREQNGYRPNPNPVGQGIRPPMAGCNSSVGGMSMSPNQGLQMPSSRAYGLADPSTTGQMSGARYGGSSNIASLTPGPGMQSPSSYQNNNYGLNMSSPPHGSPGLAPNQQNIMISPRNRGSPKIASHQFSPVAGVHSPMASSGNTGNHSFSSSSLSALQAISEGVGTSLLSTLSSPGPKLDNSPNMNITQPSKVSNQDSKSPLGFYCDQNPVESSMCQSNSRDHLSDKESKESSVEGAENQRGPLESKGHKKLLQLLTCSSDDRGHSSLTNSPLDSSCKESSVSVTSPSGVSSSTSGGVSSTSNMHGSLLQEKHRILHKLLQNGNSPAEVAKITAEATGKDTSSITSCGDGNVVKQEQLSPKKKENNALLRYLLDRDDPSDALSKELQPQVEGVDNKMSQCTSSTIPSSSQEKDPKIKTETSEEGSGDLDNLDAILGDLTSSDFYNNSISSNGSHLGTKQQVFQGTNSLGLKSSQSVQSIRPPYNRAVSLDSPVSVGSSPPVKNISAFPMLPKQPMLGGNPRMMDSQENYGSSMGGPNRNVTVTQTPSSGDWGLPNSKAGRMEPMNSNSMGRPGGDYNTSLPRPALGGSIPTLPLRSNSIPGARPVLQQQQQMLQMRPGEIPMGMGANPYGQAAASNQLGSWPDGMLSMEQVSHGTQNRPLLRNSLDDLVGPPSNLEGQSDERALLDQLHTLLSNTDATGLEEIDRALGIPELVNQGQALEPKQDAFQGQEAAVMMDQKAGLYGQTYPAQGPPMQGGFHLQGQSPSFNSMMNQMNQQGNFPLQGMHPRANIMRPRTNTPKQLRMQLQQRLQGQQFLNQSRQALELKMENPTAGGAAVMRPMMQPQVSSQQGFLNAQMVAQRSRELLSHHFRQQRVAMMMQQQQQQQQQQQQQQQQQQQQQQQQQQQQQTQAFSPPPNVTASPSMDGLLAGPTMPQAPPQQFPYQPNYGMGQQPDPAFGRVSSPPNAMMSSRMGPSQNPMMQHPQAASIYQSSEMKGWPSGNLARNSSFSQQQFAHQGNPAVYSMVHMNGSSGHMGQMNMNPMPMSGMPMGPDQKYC

[8] = HEK-293T cell viability reduction – luminescence, B-cell screen hits, cytotoxicity control for BCR NF-kB inhibitor project, dose response (AID 489021); type: functional, cell-based;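 further: HEK-293T cells carrying an NF-kB luciferase reporter; cells exposed to compound for about 14 hours before viability readout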
[9] = target: Peroxisome proliferator-activated receptor gamma/Nuclear receptor coactivator 2 (Homo sapiens, UniProt P37231); experiment: (§1) TR-FRET dose response biochemical High Throughput Screening assay for agonists of the steroid receptor coactivator 2 (SRC-2) recruitment by the peroxisome proliferator-activated receptor gamma (PPAR gamma): non-selective agonists. [Related pubchem assays: 1297, 1032 ]; type: functional
HEK293 [10] = experiment: EBV LMP1 TES2 canonical NF-kB signalling blockers – cell-based, HEK293, luciferase, cherry-pick, dose response (AID 588343); type: functional; details: Homo sapiens
[11] = target: Peroxisome proliferator-activated receptor gamma/Nuclear receptor coactivator 1 (Homo sapiens, UniProt P37231); experiment: as §1, with “1 (SRC-1)” for “2 (SRC-2)”, “assays (depositor defined):AID1300, AID1808, AID504735, AID631]” for “assays: 1297, 1032 ]”; type: protein assay
Sequence of Peroxisome proliferator-activated receptor gamma/Nuclear receptor coactivator 1 (P37231 whole entry): as the sequence (P37231 whole entry) above
Sequence of Peroxisome proliferator-activated receptor gamma/Nuclear receptor coactivator 1 (Q15788 whole entry, further chain): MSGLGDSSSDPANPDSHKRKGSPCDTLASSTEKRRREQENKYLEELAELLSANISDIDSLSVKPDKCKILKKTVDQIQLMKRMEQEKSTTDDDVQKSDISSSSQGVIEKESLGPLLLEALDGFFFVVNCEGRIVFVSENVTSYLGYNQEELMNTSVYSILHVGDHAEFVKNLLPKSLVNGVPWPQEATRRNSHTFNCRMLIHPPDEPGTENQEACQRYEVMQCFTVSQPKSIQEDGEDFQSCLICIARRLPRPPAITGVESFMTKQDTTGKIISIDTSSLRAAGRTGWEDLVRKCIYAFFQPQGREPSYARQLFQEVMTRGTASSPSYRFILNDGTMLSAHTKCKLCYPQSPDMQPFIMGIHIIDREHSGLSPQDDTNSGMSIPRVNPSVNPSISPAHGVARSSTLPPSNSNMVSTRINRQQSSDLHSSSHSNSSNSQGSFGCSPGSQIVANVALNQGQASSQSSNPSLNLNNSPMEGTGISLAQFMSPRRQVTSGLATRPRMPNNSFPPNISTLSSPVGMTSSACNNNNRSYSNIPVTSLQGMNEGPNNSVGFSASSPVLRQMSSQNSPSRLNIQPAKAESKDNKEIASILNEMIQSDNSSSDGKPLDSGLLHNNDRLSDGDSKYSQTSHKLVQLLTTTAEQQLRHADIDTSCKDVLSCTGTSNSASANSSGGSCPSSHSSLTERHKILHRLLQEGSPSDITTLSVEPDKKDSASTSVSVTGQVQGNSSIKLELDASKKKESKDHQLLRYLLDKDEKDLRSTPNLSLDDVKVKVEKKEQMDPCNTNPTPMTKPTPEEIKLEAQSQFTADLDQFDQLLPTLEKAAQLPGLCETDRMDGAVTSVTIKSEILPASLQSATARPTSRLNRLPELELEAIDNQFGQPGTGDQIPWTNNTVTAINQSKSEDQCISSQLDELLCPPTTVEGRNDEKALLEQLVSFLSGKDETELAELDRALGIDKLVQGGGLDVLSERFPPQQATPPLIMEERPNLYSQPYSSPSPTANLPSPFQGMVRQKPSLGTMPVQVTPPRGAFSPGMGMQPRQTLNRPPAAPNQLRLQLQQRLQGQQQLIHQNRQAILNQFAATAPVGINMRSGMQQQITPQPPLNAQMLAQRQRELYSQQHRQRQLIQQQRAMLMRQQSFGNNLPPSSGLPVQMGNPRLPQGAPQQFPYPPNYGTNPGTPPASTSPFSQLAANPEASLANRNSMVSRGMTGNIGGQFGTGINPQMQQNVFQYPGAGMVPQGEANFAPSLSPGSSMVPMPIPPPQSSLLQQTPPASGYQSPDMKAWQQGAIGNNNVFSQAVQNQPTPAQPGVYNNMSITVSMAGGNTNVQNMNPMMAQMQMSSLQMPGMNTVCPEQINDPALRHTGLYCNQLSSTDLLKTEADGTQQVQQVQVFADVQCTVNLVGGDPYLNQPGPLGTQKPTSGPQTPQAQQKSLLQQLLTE

X-box-binding protein 1 = X-box-binding protein 1 (Homo sapiens, UniProt P17861); type: functional, Cricetulus griseus;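 further: confirmatory dose-response counter-screen serving a CHOP assay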
[12] = target: T2, Short transient receptor potential channel 4 (Mus musculus, UniProt Q9QUQ5); experiment: block of DAMGO-driven TRPC4 calcium entry – cell-based, HEK293 TRPC4/mu-opioid, Fluo-4 calcium, dose response (AID 434942); type: functional;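 further: potency of inhibitors blocking the TRPC4 calcium response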
T2 sequence (Q9QUQ5 whole entry): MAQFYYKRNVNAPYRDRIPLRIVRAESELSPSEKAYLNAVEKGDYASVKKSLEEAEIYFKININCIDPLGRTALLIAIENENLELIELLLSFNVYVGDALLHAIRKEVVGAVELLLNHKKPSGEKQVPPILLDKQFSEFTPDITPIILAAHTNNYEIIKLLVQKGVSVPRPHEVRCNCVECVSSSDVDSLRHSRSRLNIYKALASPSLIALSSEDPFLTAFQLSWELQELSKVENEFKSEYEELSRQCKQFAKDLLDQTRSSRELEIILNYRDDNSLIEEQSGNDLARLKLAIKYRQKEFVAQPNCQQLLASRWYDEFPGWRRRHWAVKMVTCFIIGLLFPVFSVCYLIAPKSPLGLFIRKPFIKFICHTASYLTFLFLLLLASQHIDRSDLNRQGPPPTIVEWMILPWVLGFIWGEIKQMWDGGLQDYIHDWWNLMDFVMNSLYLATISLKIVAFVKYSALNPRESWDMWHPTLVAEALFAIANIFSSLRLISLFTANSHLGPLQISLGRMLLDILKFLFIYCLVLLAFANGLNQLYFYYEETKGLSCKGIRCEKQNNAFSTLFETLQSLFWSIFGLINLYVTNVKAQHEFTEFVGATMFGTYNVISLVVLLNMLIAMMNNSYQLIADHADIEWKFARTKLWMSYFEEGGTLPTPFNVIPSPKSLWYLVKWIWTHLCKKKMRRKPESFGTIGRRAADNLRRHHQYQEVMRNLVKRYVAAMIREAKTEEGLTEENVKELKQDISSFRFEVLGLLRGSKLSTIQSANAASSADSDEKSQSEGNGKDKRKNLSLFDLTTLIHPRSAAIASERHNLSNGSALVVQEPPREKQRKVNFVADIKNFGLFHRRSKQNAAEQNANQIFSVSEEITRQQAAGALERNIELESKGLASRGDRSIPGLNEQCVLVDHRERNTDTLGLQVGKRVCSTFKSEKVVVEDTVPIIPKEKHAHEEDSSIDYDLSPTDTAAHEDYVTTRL

[13] = target: T3, Heat shock factor protein 1 (Mus musculus, UniProt P38532); experiment: decrease of HSF1-responsive luciferase luminescence – cell-based, NIH3T3, dose retest, confirmation (AID 2382); type: functional;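 further: NIH3T3 fibroblasts with HSF1-driven luciferase reporter stressed by proteasome inhibitor MG132; luminescence from HSF1-driven luciferase expression after 8 hours of MG132 stress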
T3 sequence (P38532 whole entry): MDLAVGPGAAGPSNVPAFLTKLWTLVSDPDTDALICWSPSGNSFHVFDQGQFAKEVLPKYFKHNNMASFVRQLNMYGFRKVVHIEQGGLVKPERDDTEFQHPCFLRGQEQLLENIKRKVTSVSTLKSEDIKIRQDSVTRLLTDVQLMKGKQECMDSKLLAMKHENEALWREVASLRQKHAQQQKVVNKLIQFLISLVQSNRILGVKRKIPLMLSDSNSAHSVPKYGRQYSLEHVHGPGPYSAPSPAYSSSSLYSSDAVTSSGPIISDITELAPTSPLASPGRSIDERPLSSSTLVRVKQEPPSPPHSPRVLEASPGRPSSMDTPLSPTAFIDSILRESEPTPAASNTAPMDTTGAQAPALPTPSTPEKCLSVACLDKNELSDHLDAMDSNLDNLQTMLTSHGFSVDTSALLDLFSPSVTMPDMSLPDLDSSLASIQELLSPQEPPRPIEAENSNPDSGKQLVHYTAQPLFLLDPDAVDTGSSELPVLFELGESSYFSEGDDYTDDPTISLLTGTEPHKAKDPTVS

[14] = target: Neurotensin receptor type 1 (Homo sapiens, UniProt P30989); type: functional;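 further: Image-based confirmatory dose-response assay measuring agonist activity at NTR1; NTR1-expressing U2OS osteosarcoma cells imaged for beta-arrestin GFP spot formation; agonist potency where compounds increase beta-arrestin recruitment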
[15] = cAMP pathway inhibition in counterscreen cell line – TR-FRET cAMP detection, counter-screen for MC4R biased antagonist project, dose response (AID 602305); type: functional, cell-based;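 further: U2OS cells stimulated with forskolin near its EC80 as the cAMP inducer; potency is for inhibition of forskolin-stimulated cAMP signaling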
[16] = Luminescence Cell-Based Dose Retest to Confirm Inhibitors of Cancer Stem Cells. [Related pubchem assays (depositor defined):AID2717, AID2721]; type: functional; details: Homo sapiens
Melanocortin receptor 4 = Melanocortin receptor 4 (Homo sapiens, UniProt P32245); experiment: inhibitors of MC4R cAMP signaling – cell-based, TR-FRET, biased antagonists, dose response (AID 602298); type: functional;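 further: antagonist potency against agonist-stimulated cAMP production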
[17] = target: T4, Microphthalmia-associated transcription factor (Homo sapiens, UniProt O75030); experiment: reducers of TRPM1 reporter luminescence, concentration series – cell-based, SK-MEL-5, cherry-picked, set 3, MITF inhibitor project, dose response (AID 493073); type: functional;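 further: SK-MEL-5 melanoma cells with luciferase driven by the MITF target TRPM1 promoter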
T4 sequence (O75030 whole entry): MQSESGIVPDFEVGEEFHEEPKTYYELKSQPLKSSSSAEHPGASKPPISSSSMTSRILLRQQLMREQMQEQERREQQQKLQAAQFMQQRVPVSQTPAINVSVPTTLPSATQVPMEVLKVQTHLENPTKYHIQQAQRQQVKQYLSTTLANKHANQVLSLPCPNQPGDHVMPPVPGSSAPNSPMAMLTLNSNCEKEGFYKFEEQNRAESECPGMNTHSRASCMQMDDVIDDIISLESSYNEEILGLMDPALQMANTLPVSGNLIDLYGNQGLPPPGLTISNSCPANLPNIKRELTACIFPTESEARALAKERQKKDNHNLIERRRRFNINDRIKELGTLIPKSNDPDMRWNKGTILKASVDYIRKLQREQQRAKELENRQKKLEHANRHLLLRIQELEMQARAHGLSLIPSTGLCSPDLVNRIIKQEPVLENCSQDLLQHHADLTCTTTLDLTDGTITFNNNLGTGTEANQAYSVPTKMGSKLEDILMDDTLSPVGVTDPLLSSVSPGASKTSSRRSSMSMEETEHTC

[18] = target: Heat shock protein HSP 90-alpha (Homo sapiens, UniProt P07900); type: functional, organism-based
[19] = target: T5, Rac GTPase-activating protein 1 (Homo sapiens, UniProt Q9H0H5); experiment: blockers of MgcRacGAP-driven Rac1 GTP hydrolysis – biochemical, ADP Hunter fluorescence, primary and confirmatory, confirmation (AID 624330); type: functional
T5 sequence (Q9H0H5 whole entry): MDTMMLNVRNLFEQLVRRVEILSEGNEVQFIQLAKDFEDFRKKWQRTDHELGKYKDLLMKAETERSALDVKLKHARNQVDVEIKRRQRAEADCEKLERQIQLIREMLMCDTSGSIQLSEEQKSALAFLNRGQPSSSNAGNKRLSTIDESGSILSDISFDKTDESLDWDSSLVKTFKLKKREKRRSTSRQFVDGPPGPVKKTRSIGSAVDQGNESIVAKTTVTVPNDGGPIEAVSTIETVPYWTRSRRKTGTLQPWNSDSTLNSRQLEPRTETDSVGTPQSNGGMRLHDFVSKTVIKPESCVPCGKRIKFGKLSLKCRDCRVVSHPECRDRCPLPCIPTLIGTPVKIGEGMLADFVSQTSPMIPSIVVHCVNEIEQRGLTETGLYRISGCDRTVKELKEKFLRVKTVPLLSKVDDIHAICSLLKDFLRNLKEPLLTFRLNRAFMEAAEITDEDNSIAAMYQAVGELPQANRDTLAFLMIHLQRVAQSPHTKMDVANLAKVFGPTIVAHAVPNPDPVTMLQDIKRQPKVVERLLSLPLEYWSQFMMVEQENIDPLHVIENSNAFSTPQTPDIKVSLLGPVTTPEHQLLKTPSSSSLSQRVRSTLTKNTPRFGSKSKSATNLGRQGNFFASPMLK

Bcl-2-like protein 10 = Bcl-2-like protein 10 (Homo sapiens, UniProt Q9HD36); experiment: Bcl-B/TR3 peptide binding disruption – biochemical, fluorescence polarization, FITC-TR3 peptide, selectivity assay for Bfl-1 inhibitor project, primary screen (AID 748);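 further: fluorescence polarization from a fluorescein-labelled TR3 peptide binding purified Bcl-B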
Sequence of Bcl-2-like protein 10 (Q9HD36 whole entry): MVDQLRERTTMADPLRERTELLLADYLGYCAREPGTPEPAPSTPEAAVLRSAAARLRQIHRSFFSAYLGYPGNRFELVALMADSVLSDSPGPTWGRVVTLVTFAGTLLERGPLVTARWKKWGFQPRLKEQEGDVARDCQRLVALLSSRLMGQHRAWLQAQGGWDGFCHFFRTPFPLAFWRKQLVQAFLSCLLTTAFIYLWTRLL

HEK293 [20] = experiment: cells; type: functional, cell-based; details: Homo sapiens
[21] = Vero E6 cell cytotoxicity, dose response, cytotoxicity control for non-replicating M. tuberculosis project, secondary assay (AID 492998); type: functional, VeroE6; details: Vero C1008
HEK293 [22] = experiment: cells; type: functional, cell-based; details: Homo sapiens; remark: listed apart in the source
[23] = THP-1 cell cytotoxicity, dose response, cytotoxicity control for non-replicating M. tuberculosis project (AID 489025); type: functional
HEK293 [24] = experiment: inhibition of NOD1-driven NF-kB reporter – cell-based, luminescence, uHTS, primary screen (AID 1578); type: functional; details: Homo sapiens
[25] = HepG2 cell cytotoxicity, dose response, cytotoxicity control for non-replicating M. tuberculosis project (AID 489018); type: functional; details: Mycobacterium tuberculosis

Cc1ccc(S(=O)(=O)NCc2ccc(C(=O)NCCN(Cc3ccc(Br)cc3)C(C)C)cc2)cc1
IC50 [1]: > 32 µM (inactive) | IC50 (Mu-type opioid receptor): > 32 µM (inactive)

Sc1nnc(-c2cccs2)n1C1CCCCC1
IC50 (Beta-lactamase [2]): > 59.6 µM (inactive) | IC50 [3]: 4.59 µM (active) | IC50 [4]: > 100 µM (inactive) | IC50 (Beta-lactamase [5]): > 59.6 µM (inactive) | IC50 (Beta-lactamase [6]): > 59.6 µM (inactive)

O=C(Cc1cccc2ccccc12)Nc1ccc(-c2cc3ccccc3oc2=O)cc1
EC50 [7]: > 79.4 µM (not active) | IC50 [8]: > 80 µM (inactive) | EC50 [9]: 22 µM (not active) | AC50 (HEK293 [10]): 0.587 µM (active) | EC50 [11]: 22.7 µM (inactive)

CCOc1ccc(-c2[nH]nc(C)c2Oc2ccc(OC)cc2)c(O)c1
Absolute IC50 (XBP1) (X-box-binding protein 1): 10 µM

Cc1ccc(S(=O)(=O)Nc2cccc(C(=O)NCC(c3ccco3)N3CCCCC3)c2)cc1F (configuration not stated)
EC50 [12]: 0.267 µM (active)

Cc1ccc(OCc2cc(C(=O)N(C)CCc3nc4ccccc4[nH]3)no2)cc1C
EC50 [12]: 1.06 µM (active) | EC50 [13]: > 195 µM (not active)

CN(C)c1ccc(-n2cccc2/C=C/[N+](=O)[O-])cc1
EC50 [14]: 9.06 µM (active) | IC50 [15]: > 64.6 µM (inactive) | AC50 [16]: 2.93 µM (active) | IC50 (Melanocortin receptor 4): 12.1 µM (inactive) | AC50 [17]: 10.2 µM (active) | AC50 [18]: 4.36 µM (active) | IC50 [19]: 43.2 µM (active)

O=C1c2ccccc2C(=O)N1CC#CCN1CCN(C2CCCCC2)CC1
IC50 (Bcl-2-like protein 10): > 100 µM (inactive)

Cc1cc(-c2nnc(S)n2/N=C/c2ccc(C)s2)[nH]n1
IC50 [3]: 2.28 µM (active) | IC50 [4]: > 100 µM (inactive)

CN(C)S(=O)(=O)Oc1ccc(C(=O)Nc2cccc(C(F)(F)F)c2)cc1
IC50 (HEK293 [20]): 6.71 µM (active) | CC50 [21]: > 20 µM (active) | IC50 (HEK293 [22]): 12.1 µM (active) | CC50 [23]: > 40 µM (active) | EC50 (HEK293 [24]): 10.9 µM (active) | CC50 [25]: > 20 µM (active)

From ChEMBL document CHEMBL1201862, “PubChem BioAssay data set” (2004)
